Earlier results on one compound are cited in patent US20100035992A1, “Methods and Compositions for Treating Inflammation and Inflammation-Related Pathologies” (priority 2008, published 2010).

The conditions of this series: at 79° F.

Regarding `CS(C)(=O)=O` [MSM, methylsulfonylmethane], the water solubility was 34 % w/v.
